# Where no end group is shown, it is not given here.
# Tests used:
# [1] = tested on: normal human keratinocytes; assay: Synthesis of 46-47 KD keratin by human keratinocytes in primary culture; type: cell-based; conditions: compared with a control
# Protocol: (§1) Culture of normal human keratinocytes
# (§2) The epidermis is then dissociated under gentle mechanical action, or enzymically, in order to obtain the individual cells. Only the basal cells are capable of multiplying in vitro.
# (§3) The culture is carried out at 37° C. in a controlled moist atmosphere ([…] --5% CO2).
# (§4) In monolayer culture, the calcium concentration is between 0.05 and 0.1 mM. […] The synthesis of the keratinocytes is maintained. The intercellular spaces are wide: cell connections are maintained by microvillosities and not by tight junctions. While the tonofilaments of the perinuclear space can be seen, they are still not attached to the anchoring plaques.
# (§5) Stratification can be induced by increasing the final calcium concentration in the culture medium to 1.2 mM. The formation of desmosomes then appears after 2 hours.
# (§6) I ETF derivative No. IX, which has been lyophilized
# in Dextran (40 g/l) and which is at a concen-
# tration of 10^-6 M in the final culture medium.
# II Crist. SIGMA thymopoietin - at a concentration of
# 10^-6 M in the final culture medium.
# (§7) Human keratinocytes are cultured as described by Henning et al. (1983) or Fuchs et al. (1981). Air/liquid cultures are also carried out using the following methodology.
# The cell markers which are selected are the low-molecular-weight 46/47 KD keratins, which are specific for the growth and cell differentiation of the germinative cells.
# (§8) Indirect fluorescent labeling by the sandwich technique--48 hours after adding calcium to the culture medium (stratification).
# rat antihuman 46-47 KD keratin antibody
# FITC-labeled mouse antirat Ig G2 antibody.
# (§9) Use of immunofluorescence, with graphic recording, for measuring cell markers.
# (§10) Spectrofluorometric assays
# (§11) "Perkin Elmer LS-50 B spectrofluorimeter".
# (§12) on cell homogenate supernatants.
# (§13) LOWRY technique using a Perkin Elmer UV spectrophotometer (cell homogenate supernatants).
# (§14) The fluorescence intensity of the cells treated with ETF No. IX is assessed in comparison with the fluorescence intensity of the controls.
# [2] = tested on: normal human keratinocytes; assay: Synthesis of keratohyalin (filaggrin) by human keratinocytes in primary culture; type: cell-based; conditions: for Stimulation % (keratohyalin synthesis): compared with a control; for Keratin/protein mean (keratohyalin synthesis, Table III): proteins expressed in micrograms/ml
# Protocol: as §1, §2, §3, §4, §5, §6
# in Dextran (40 g/l) and which is at a concen- […]
# II Crist. SIGMA thymopoietin - at a concentration of […]
# as §7
# The filaggrins are markers of keratohyalin.
# as §8
# human antikeratohyalin (filaggrin) antibody
# FITC-labeled goat antihuman Ig G antibody.
# as §9, §10, §11, §12, §13, §14
# Ia+ Langerhans cells = assay: Ia+ Langerhans cell density after topical application to mouse ear; type: in vivo, C57-BL/6 mice; conditions: for Number of Ia+ cells per mm^2 of epidermis, batch 1 / Number of Ia+ cells per mm^2 of epidermis, batch 2 / Number of Ia+ cells per mm^2 of epidermis, batch 3 / Number of Ia+ cells per mm^2 of epidermis, batch 4 / Number of Ia+ cells per mm^2 of epidermis, Mean: C 57 BL/6 mice; for Number of Ia+ cells per mm^2 of epidermis, Mean: 4 batches; for Ia+ cells %: relative to PG controls
# Protocol: (§15) I--Experimental Samples--Code: ETF
# (§16) In solution in propylene glycol at a concentration of 10^-5 M/ml
# (§17) 5 to 7-week-old male C 57-BL/6 mice, which are divided into groups of 4 per cage, and which have free access to water and food and which are subjected to a photoperiod of 12 h of light per 24 hours, are given a topical application of the peptide in propylene glycol (50 μl vol) on the dorsal surface of the ear daily for 5 consecutive days.
# (§18) The animals are sacrificed on day 6. The ears are removed, with the dorsal and ventral surfaces being separated.
# (§19) The tissues of the dorsal surface are immersed in Na EDTA (0.020 M) at 37° C. for 2 h.
# (§20) After incubation, the epidermis is removed in the form of an intact sheet, fixed with acetone and rehydrated in PBS (phosphate buffer).
# (§21) The Thy 1-2+ and Ia+ EDC (epidermal dendritic cells) are identified by indirect immunofluorescence double labeling.
# (§22) In the case of each epidermal sheet, the number of cells per mm^2 is determined using the peripheral regions of the same surface.
# The EDC (epidermal dendritic cells) carrying the Ia+ marker were identified using an anti-Ia+ monoclonal antibody.
# The epidermal sheets are fixed with acetone and then incubated, at 37° C. for 1 h, in the presence of the anti-Ia+ monoclonal antibody, which has been labeled by the indirect immunoperoxidase method (Kit).
# After having been incubated at 37° C. for 10 minutes with a solution of aminoethylcarbazole, the preparation is washed with PBS.
# (§23) In the case of each epidermal sheet, the number of Ia+ Langerhans cells or Thy 1.2+ EDCs per square millimeter was determined by means of immunofluorescence, using a confocal Zeiss microscope which was equipped for this purpose, in four peripheral areas of the same surface. At least four animals were studied in each of the groups. The density of Ia+ Langerhans cells and Thy 1.2+ EDCs is shown for each measurement.
# [3] = tested on: Thy 1.2+ thymocytes of the epidermis; assay: Thy 1.2+ epidermal cell density after topical application to mouse ear (immunofluorescence); type: in vivo, C57-BL/6 mice; conditions: for Number of Thy 1.2+ cells per mm^2 of epidermis, batch 1 / Number of Thy 1.2+ cells per mm^2 of epidermis, batch 2 / Number of Thy 1.2+ cells per mm^2 of epidermis, batch 3 / Number of Thy 1.2+ cells per mm^2 of epidermis, batch 4 / Number of Thy 1.2+ cells per mm^2 of epidermis, Mean: C 57 BL/6 mice; for Number of Thy 1.2+ cells per mm^2 of epidermis, Mean: 4 batches; for Thy 1.2+ cells % T: relative to PG controls
# Protocol: as §15, §16, §17, §18, §19, §20, §21, §22
# The Thy 1.2+ EDC were identified by indirect immunofluorescence double labeling. The epidermal sheets were fixed with acetone and then rehydrated in PBS.
# The tissues were labeled simultaneously, at 4° C. for 16 h, with mouse anti-Thy 1.2+ antibody which was diluted 1:100. The tissue samples were washed three times in PBS for 60 min and then incubated, at 37° C. for 60 min, either with goat antimouse antibody which was coupled to rhodamine and diluted 1:20, or with goat antirabbit antibody which was coupled to fluorescein (fluorescine and diluted 1:20 in PBS. The tissues were then washed in PBS before being mounted as previously described.
# as §23
substance,measurement,setting,value
thymopoietin [reference compound],Stimulation % (46-47 KD keratin synthesis),[1]; Concentration 10^-6 M,19%
same,Stimulation % (keratohyalin synthesis),[2]; Concentration 10^-6 M,35%
same,"Keratin/protein mean (keratohyalin synthesis, Table III)",[2]; Concentration 10^-6 M,4.99
"A-Pyr-Ala-Lys-Ser-Gln-Gly-Gly-Ser-Asn-NH2 (AKSQGGSN; not fully specified (N-terminus, C-terminus); printed as A-Pyr-Ala-Lys-Ser-Gln-Gly-Gly-Ser-Asn-NH2) [ETF-I, A of the tested sample not restated]","Number of Ia+ cells per mm^2 of epidermis, batch 1",Ia+ Langerhans cells; dose 0.10 Nanog.,368 cells per mm^2
same,"Number of Ia+ cells per mm^2 of epidermis, batch 2",Ia+ Langerhans cells; dose 0.10 Nanog.,388 cells per mm^2
same,"Number of Ia+ cells per mm^2 of epidermis, batch 3",Ia+ Langerhans cells; dose 0.10 Nanog.,378 cells per mm^2
same,"Number of Ia+ cells per mm^2 of epidermis, batch 4",Ia+ Langerhans cells; dose 0.10 Nanog.,395 cells per mm^2
same,"Number of Ia+ cells per mm^2 of epidermis, Mean",Ia+ Langerhans cells; dose 0.10 Nanog.,382.25 cells per mm^2
same,Ia+ cells %,Ia+ Langerhans cells; dose 0.10 Nanog.,273%
same,"Number of Ia+ cells per mm^2 of epidermis, batch 1",Ia+ Langerhans cells; dose 0.50 Nanog.,360 cells per mm^2
same,"Number of Ia+ cells per mm^2 of epidermis, batch 2",Ia+ Langerhans cells; dose 0.50 Nanog.,392 cells per mm^2
same,"Number of Ia+ cells per mm^2 of epidermis, batch 3",Ia+ Langerhans cells; dose 0.50 Nanog.,386 cells per mm^2
same,"Number of Ia+ cells per mm^2 of epidermis, batch 4",Ia+ Langerhans cells; dose 0.50 Nanog.,399 cells per mm^2
same,"Number of Ia+ cells per mm^2 of epidermis, Mean",Ia+ Langerhans cells; dose 0.50 Nanog.,384.25 cells per mm^2
same,Ia+ cells %,Ia+ Langerhans cells; dose 0.50 Nanog.,275%
same,"Number of Ia+ cells per mm^2 of epidermis, batch 1",Ia+ Langerhans cells; dose 1.00 Nanog.,372 cells per mm^2
same,"Number of Ia+ cells per mm^2 of epidermis, batch 2",Ia+ Langerhans cells; dose 1.00 Nanog.,410 cells per mm^2
same,"Number of Ia+ cells per mm^2 of epidermis, batch 3",Ia+ Langerhans cells; dose 1.00 Nanog.,390 cells per mm^2
same,"Number of Ia+ cells per mm^2 of epidermis, batch 4",Ia+ Langerhans cells; dose 1.00 Nanog.,412 cells per mm^2
same,"Number of Ia+ cells per mm^2 of epidermis, Mean",Ia+ Langerhans cells; dose 1.00 Nanog.,396.00 cells per mm^2
same,Ia+ cells %,Ia+ Langerhans cells; dose 1.00 Nanog.,286%
same,"Number of Thy 1.2+ cells per mm^2 of epidermis, batch 1",[3]; dose 0.10 Nanog.,197 cells per mm^2
same,"Number of Thy 1.2+ cells per mm^2 of epidermis, batch 2",[3]; dose 0.10 Nanog.,180 cells per mm^2
same,"Number of Thy 1.2+ cells per mm^2 of epidermis, batch 3",[3]; dose 0.10 Nanog.,192 cells per mm^2
same,"Number of Thy 1.2+ cells per mm^2 of epidermis, batch 4",[3]; dose 0.10 Nanog.,207 cells per mm^2
same,"Number of Thy 1.2+ cells per mm^2 of epidermis, Mean",[3]; dose 0.10 Nanog.,194.00 cells per mm^2
same,Thy 1.2+ cells % T,[3]; dose 0.10 Nanog.,120%
same,"Number of Thy 1.2+ cells per mm^2 of epidermis, batch 1",[3]; dose 0.50 Nanog.,200 cells per mm^2
same,"Number of Thy 1.2+ cells per mm^2 of epidermis, batch 2",[3]; dose 0.50 Nanog.,208 cells per mm^2
same,"Number of Thy 1.2+ cells per mm^2 of epidermis, batch 3",[3]; dose 0.50 Nanog.,199 cells per mm^2
same,"Number of Thy 1.2+ cells per mm^2 of epidermis, batch 4",[3]; dose 0.50 Nanog.,219 cells per mm^2
same,"Number of Thy 1.2+ cells per mm^2 of epidermis, Mean",[3]; dose 0.50 Nanog.,206.50 cells per mm^2
same,Thy 1.2+ cells % T,[3]; dose 0.50 Nanog.,134%
same,"Number of Thy 1.2+ cells per mm^2 of epidermis, batch 1",[3]; dose 1.00 Nanog.,214 cells per mm^2
same,"Number of Thy 1.2+ cells per mm^2 of epidermis, batch 2",[3]; dose 1.00 Nanog.,210 cells per mm^2
same,"Number of Thy 1.2+ cells per mm^2 of epidermis, batch 3",[3]; dose 1.00 Nanog.,208 cells per mm^2
same,"Number of Thy 1.2+ cells per mm^2 of epidermis, batch 4",[3]; dose 1.00 Nanog.,226 cells per mm^2
same,"Number of Thy 1.2+ cells per mm^2 of epidermis, Mean",[3]; dose 1.00 Nanog.,214.50 cells per mm^2
same,Thy 1.2+ cells % T,[3]; dose 1.00 Nanog.,143%
"A-Gln-Gly-Gly-Ser-Asn-NH2 (QGGSN; not fully specified (N-terminus, C-terminus)) [ETF No. IX, A not specified; lyophilized in Dextran for the test]",Stimulation % (46-47 KD keratin synthesis),[1]; Concentration 10^-6 M,90%
same,Stimulation % (46-47 KD keratin synthesis),[1]; Concentration 10^-8 M,95%
same,Stimulation % (46-47 KD keratin synthesis),[1]; Concentration 10^-10 M,86%
same,Stimulation % (46-47 KD keratin synthesis),[1]; Concentration 10^-12 M,41%
same,Stimulation % (keratohyalin synthesis),[2]; Concentration 10^-6 M,62%
same,"Keratin/protein mean (keratohyalin synthesis, Table III)",[2]; Concentration 10^-6 M,5.97
same,Stimulation % (keratohyalin synthesis),[2]; Concentration 10^-8 M,83%
same,"Keratin/protein mean (keratohyalin synthesis, Table III)",[2]; Concentration 10^-8 M,6.75
same,Stimulation % (keratohyalin synthesis),[2]; Concentration 10^-10 M,39%
same,"Keratin/protein mean (keratohyalin synthesis, Table III)",[2]; Concentration 10^-10 M,5.13
same,Stimulation % (keratohyalin synthesis),[2]; Concentration 10^-12 M,38%
same,"Keratin/protein mean (keratohyalin synthesis, Table III)",[2]; Concentration 10^-12 M,5.11

# — patent US6211155A, “Peptide conjugates derived from thymic hormones, their use as a medicament and compositions containing them” (Institut European de Biologie Cellulaire, priority 1995, dated 2001)
